# Measurements taken from patent publication US6214345A, “Lysosomal enzyme-cleavable antitumor drug conjugates” (Bristol-Myers Squibb Co., priority 1993, dated 2001).
# Where a name gives a salt, the structure may show the parent alone.
# Key:
# [1] = test system: L2987 human lung carcinoma xenografts; assay: Antitumor activity against established L2987 human tumor xenografts (Test VI); assay type: in vivo, mice
# Description: The BR96-PEP-DOX conjugate (MR=4.41) was evaluated in vivo (Table 1) against L2987 human lung carcinoma xenografts. Therapy was initiated 14 days after tumor implant when the tumors were approximately 75 mm 3 in size.
# HCT116 colon line = assay: In vitro cytotoxicity assay (3H-thymidine uptake), HCT116; assay type: cell-based, human; settings: antigen-negative HCT116, 2 hours exposure
# Description: All dilutions were performed in quadruplicate.
# cathepsin B = cathepsin B (Bos taurus, UniProt P07688)
# Description: (§3) Bovin spleen cathepsin B (Sigma, EC 3.4.22.1, MW ca. 40,000) (10 units) was dissolved in 1 ml pH 5.0 acetate buffer (25 mM acetate+1 mM EDTA), giving a solution roughly 13.7 M. 6 μl of the enzyme solution was incubated with 12 μl of an activating solution (30 mM dithiothreitol and 15 mM EDTA) for about 15 minutes at room temperature. To this was added 2 ml of pH 5.0 acetate buffer (25 mM acetate with 1 mM EDTA) which had been incubated at about 37° C., followed by 8 μl of a 10 mM solution of Z-Phe-Lys-PABC-DOX in methanol ([Substrate]=40 μM, [Cathepsin B]=ca. 41 nM). The mixture was incubated at about 37° C., and aliquots were periodically removed and injected into the HPLC (C-18 column; 80:20 methanol/pH 2.8 triethylammonium formate (50 mM) buffer; 1 ml/min.; 495 mn detection wavelength).
# A2780 ovarian line = settings: A2780, 2 hours exposure, 3H-thymidine uptake
# Excerpt: (§1) L2987 is a lung adenocarcinoma line obtained from I. Hellstrom (Bristol-Myers Squibb, Seattle, Wash.). The HCT116 colorectal tumor line was obtained from M. Brattain (Baylor Inst., Tex.). A2780 is an ovarian carcinoma line obtained from K. Scanlon (National Cancer Institute).
# (§2) Monolayer cultures of human carcinoma cells were harvested using trypsin-EDTA (GIBCO, Grand Island, N.Y.), and the cells counted and resuspended to 1×10^5 /ml in RPMI-1640 containing 10% heat inactivated fetal calf serum (RPMI-10% FCS). Cells (0.1 ml/well) were added to each well of 96 well microtiter plates and incubated overnight at about 37° C. in a humidified atmosphere of 5% CO2. Media was removed from the plates and serial dilutions of DOX or MAb-DOX conjugates added to the walls. All dilutions were performed in quadruplicate. Cells were exposed to DOX or MAb-DOX conjugates for about 2 hours at about 37° C. in a humidified atmosphere of 5% CO2. Plates were then centrifuged (200×g, 5 min.), the drug or conjugate removed, and the cells washed 3× with RPMI-10% FCS. The cells were cultured in RPMI-10% FCS (37° C., 5% CO2) for an additional 48 hours. At this time the cells were pulsed for about 2 hours with 1.0 uCi/well of ^3 H-thymidine (New England Nuclear, Boston, Mass.).
# L2987 lung line = settings: L2987, 2 hours exposure, 3H-thymidine uptake
# Excerpt: as §1, §2
# [2] = Human plasma stability of Z-Phe-Lys-PABC-DOX (Test IV); assay type: in vitro ADME; settings: freshly drawn human plasma
# Description: Aliquots (50 μl) were periodically removed and diluted with cold methanol (100 μl). The samples were centrifuged and the resulting liquid injected into the HPLC (conditions as above). Enough DOX was added to a separate sample of plasma to give a theoretical release of 1% from the substrate. This was successfully detected using the same methods.
# Bovin spleen cathepsin B = target: T1, Bovin spleen cathepsin B (Bos taurus, UniProt P07688); assay: Cathepsin B unmasking of Z-Phe-Lys-PABC-DOX (Test III); assay type: biochemical, bovine; settings: pH 5.0 acetate buffer, about 37° C., [Substrate]=40 μM, [Cathepsin B]=ca. 41 nM
# T1 construct: purchased Sigma; host or cells: bovine spleen
# Description: as §3
# [3] = 0.31 mg/kg DOX, 20 mg/kg BR96 per injection
# [4] = 0.63 mg/kg DOX, 39 mg/kg BR96 per injection
# [5] = 1.25 mg/kg DOX, 78 mg/kg BR96 per injection
# [6] = 2.5 mg/kg DOX, 156 mg/kg BR96 per injection
# [7] = 5 mg/kg DOX, 312 mg/kg BR96 per injection
# [8] = 10 mg/kg DOX, 625 mg/kg BR96 per injection
# [9] = 20 mg/kg DOX, 1250 mg/kg BR96 per injection
molecule,measurement,setting,value
"COc1cccc2c1C(=O)c1c(O)c3c(c(O)c1C2=O)C[C@@](O)(C(=O)CO)C[C@@H]3O[C@H]1C[C@H](N)[C@H](O)[C@H](C)O1 [DOX, Doxorubicin, reference compound]",% Tumor Regressions Complete,[1]; DOX 6 mg/kg/injection,0%
same,% Tumor Regressions Partial,[1]; DOX 6 mg/kg/injection,0%
same,Log Cell Kill,[1]; DOX 6 mg/kg/injection,1.5
same,% Tumor Regressions Complete,[1]; DOX 8 mg/kg/injection,10%
same,% Tumor Regressions Partial,[1]; DOX 8 mg/kg/injection,0%
same,Log Cell Kill,[1]; DOX 8 mg/kg/injection,2.4
same,in vitro activity,HCT116 colon line,sensitive
BR96-succinimidocaproyl-phenylalanine-lysine-p-aminovenzyl-carbamoyloxy-doxorubicin [BR96-DOX],half-life of release of free DOX,"cathepsin B; cathepsin B, pH 5.3, about 37° C., HPLC",about 3 hours
same,t1/2 of DOX release by cathepsin B,cathepsin B; pH 5.3 (37° C.),3.0 h
same,% Tumor Regressions Complete,[1]; [3],0%
same,% Tumor Regressions Partial,[1]; [3],0%
same,Log Cell Kill,[1]; [3],0.2
same,% Tumor Regressions Complete,[1]; [4],0%
same,% Tumor Regressions Partial,[1]; [4],0%
same,Log Cell Kill,[1]; [4],0.3
same,% Tumor Regressions Complete,[1]; [5],10%
same,% Tumor Regressions Partial,[1]; [5],10%
same,Log Cell Kill,[1]; [5],2.4
same,% Tumor Regressions Complete,[1]; [6],90%
same,% Tumor Regressions Partial,[1]; [6],10%
same,Log Cell Kill,[1]; [6],> 7
same,% Tumor Regressions Complete,[1]; [7],100%
same,% Tumor Regressions Partial,[1]; [7],0%
same,Log Cell Kill,[1]; [7],> 7
same,% Tumor Regressions Complete,[1]; [8],89%
same,% Tumor Regressions Partial,[1]; [8],11%
same,Log Cell Kill,[1]; [8],> 7
same,% Tumor Regressions Complete,[1]; [9],100%
same,% Tumor Regressions Partial,[1]; [9],0%
same,Log Cell Kill,[1]; [9],> 7
same,activity and tolerability in vivo,[1]; doses of 1.25-20 mg/kg equivalent DOX/injection,active and tolerated
same,activity compared with optimized DOX,[1]; doses of ≥2.5 mg/kg equivalent DOX/injection,significantly more active than optimized DOX
same,"in vitro potency, fold less potent than unconjugated DOX",A2780 ovarian line,approximately 50 fold
same,in vitro potency compared with unconjugated DOX,L2987 lung line,equivalent to that of unconjugated DOX
same,in vitro activity,HCT116 colon line,not active
"COc1cccc2c1C(=O)c1c(O)c3c(c(O)c1C2=O)C[C@@](O)(C(=O)CO)C[C@@H]3O[C@H]1C[C@H](NC(=O)OCc2ccc(NC(=O)[C@H](CCCCN)NC(=O)[C@H](Cc3ccccc3)NC(=O)OCc3ccccc3)cc2)[C@H](O)[C@H](C)O1 [Z-Phe-Lys-PABC-DOX, Z-Phe-Lys-PABC-DOX-HCl]",free DOX detected in plasma,[2]; over 7 hours,No free DOX was detected
same,half-life,[2]; no release over 7 hours,> 14.6 days
same,half-life of release of free DOX,Bovin spleen cathepsin B,7 to 9 min
